US6281194A, “Cycloalkyl inhibitors of protein farnesyltransferase” (Warner-Lambert Company, priority 1999, dated 2001)
Read-outs that look alike come from different tables or passages of the source.

Legend:
[1] = target: T1, SF9 affinity purified rat farnesyl protein transferase (Rattus norvegicus, UniProt Q02293+Q04631); assay: PFT inhibitory activity; format: biochemical
T1 construct: made in house; host or cells: Sf9 insect cells (baculovirus system, inferred from b7)
Method: The protein:farnesyltransferase (PFT) or farnesyl protein transferase (FPT) inhibitory activity of compounds of the present invention were assayed in HEPES buffer (pH 7.4) containing 5 mM potassium phosphate and 20 μM ZnCl2. The solution also contained 5 mM DTT (dithiothreitol), 5 mM MgCl2 and 0.1% PEG 8000. Assays were performed in 96 well plates (Wallec) and employed solutions composed of varying concentrations of a compound of the present invention in 100% DMSO (dimethylsulfoxide). Upon addition of both substrates, radiolabeled farnesyl pyrophosphate ([1-^3 H], specific activity 15-30 Ci/mmol, final concentration 134 nM) and (biotinyl)-Ahe-Thr-Lys-Cys-Val-Ile-Met ([3aS[3a alpha, 4 beta, 6a alpha]-hexahydro-2-oxo-1H-thieno[3,4-d]imidazole-5-pentanoic acid]-[7-aminoheptanoic acid]-Thr-Lys-Cys-Val-Ile-Met) (Ahe is 7-aminoheptanoic acid, Thr is threonine, Lys is lysine, Cys is cysteine, Val is valine, Ile is isoleucine and Met is methionine) (final concentration 0.2 μM), the enzyme reaction was started by addition of SF9 affinity purified rat farnesyl protein transferase. After incubation at 30° C. for 30 minutes, the reaction was terminated by diluting the reaction 2.5-fold with a stop buffer containing 1.5 M magnesium acetate, 0.2 M H3 PO4, 0.5% BSA (bovine serum albumin), and strepavidin beads (Amersham) at a concentration of 1.3 mg/mL. After allowing the plate to settle for 30 minutes at room temperature, radioactivity was quantitated on a microBeta counter (Model 1450, Wallec). The assay was also carried out without 5 mM potassium phosphate.

[2] = test system: ras farnesylation in ras-transformed cells; assay: Gel shift assay; format: cell-based; details: 18-hour incubation
Method: Twenty-four hours after planting 2×10^6 ras-transformed cells per treatment condition, the farnesylation inhibitor is added at varying concentrations. Following an 18-hour incubation period, cells are lysed in phosphate-buffered saline containing 1% Triton X-100, 0.5% sodium deoxycholate, and 0.1% SDS (sodium dodecyl sulfate), pH 7.4 in the presence of several protease inhibitors (PMSF (phenylmethylsulfonylfluoride), antipain, leupeptin, pepstatin A, and aprotinin all at 1 μg/mL). Ras protein is immunoprecipitated from the supernatants by the addition of 3 μg v-H-ras Ab-2 (Y13-259 antibody from Oncogene Science). After overnight immunoprecipitation, 30 μL of a 50% protein G-Sepharose slurry (Pharmacia) is added followed by 45-minute incubation. Pellets are resuspended in 2× tris-glycine loading buffer (Novex) containing 5% β-mercaptoethanol and then denatured by 5 minutes boiling prior to electrophoresis on 14% Tris-glycine SDS gels. Using Western transfer techniques, proteins are transferred to nitrocellulose membranes followed by blocking in blocking buffer. Upon overnight incubation with primary antibody (pan-ras Ab-2 from Oncogene Science), an antimouse HRP (horse radish peroxidase) conjugate secondary antibody (Amersham) is employed for detection of the ras protein. Blots are developed using ECL(enhanced chemiluminescence) techniques (Amersham).

[3] = HEPES buffer pH 7.4 with 5 mM potassium phosphate, read-out: PFT Inhibitory Activity IC50 (μM) HEPES and 5 mM K3 PO4
[4] = HEPES buffer pH 7.4 without 5 mM potassium phosphate, read-out: PFT Inhibitory Activity IC50 (μM) HEPES

| Compound | IC50 [1, 3] | IC50 [1, 4] | Gel Shift (μM) M.E.D. (minimal effective dose to observe inhibition of ras farnesylation) [2] |
| --- | --- | --- | --- |
| C/C=C/CN(CC(=O)NCC1(c2ccccc2)CCC1)C(=O)[C@H](Cc1cnc[nH]1)NC(=O)OCc1ccccc1 (stereo in doubt) [Example 10, [(S)-trans]-[1-(But-2-enyl-{[(1-phenyl-cyclobutylmethyl)-carbamoyl]-methyl}-carbamoyl)-2-(3H-imidazol-4-yl)-ethyl]-carbamic Acid benzyl Ester] | 0.36 µM | < 0.001 µM | ≤ 0.05 µM |
| Cc1ccc(CN(CC(=O)NCC2(c3ccccc3)CCC2)C(=O)[C@H](Cc2c[nH]cn2)NC(=O)OCc2ccccc2)cc1 [Example 4, (S)-[1-((4-Methyl-benzyl)-{[(1-phenyl-cyclobutyl-methyl)-carbamoyl]-methyl}-carbamoyl)-2-(1H-imidazol-4-yl)-ethyl]-carbamic Acid Benzyl Ester] | 0.0054 µM | 0.26 µM | 0.01 µM |
| Cc1ccc(CN(CC(=O)NCC2(c3ccccc3)CCC2)C(=O)[C@H](Cc2c[nH]cn2)NC(=O)N(C)Cc2ccccc2)cc1 [Example 7, (S)-2-(3-Benzyl-3-methyl-ureido)-3-(1H-imidazol-4-yl)-N-(4 methyl-benyl)-N-{[(1-phenyl-cyclobutylmethy)-carbomyl]-methyl}-propionamide] | 0.003 µM | 0.014 µM | 0.01 µM |
| N-((1S)-1-(1H-4-imidazolylmethyl)-2-oxo-2-(2-oxo-2-[(1-phenylcyclobutyl)methyl]aminoethyl)[(1R)-1-phenylethyl]aminoethyl)carbamate [Example 12] | 0.34 µM | 0.002 µM | ≤ 0.05 µM |

Continued by falling IC50 [1, 3], values first:

| IC50 [1, 3] | IC50 [1, 4] | Compound | Gel Shift (μM) M.E.D. (minimal effective dose to observe inhibition of ras farnesylation) [2] |
| --- | --- | --- | --- |
| 0.33 µM | < 0.001 µM | CCCN(CC(=O)NCC1(c2ccccc2)CCC1)C(=O)[C@H](Cc1cnc[nH]1)NC(=O)OCc1ccccc1 [Example 11] | ≤ 0.05 µM |
| 0.18 µM | 7 µM | O=C(CN(Cc1ccc(OCc2ccccc2)cc1)C(=O)[C@H](Cc1c[nH]cn1)NC(=O)OCc1ccccc1)NCC1(c2c(Cl)cccc2Cl)CCC1 [Example 9, (S)-[1-[(4-Benzyloxy-benyl)-({[1-(2,6-dichlorophenyl)-cyclobutylmethyl]-carbamoyl}-methyl)-carbamoyl]-2-(1H-imidazol-4-yl)-ethyl]-carbamic Acid benzyl Ester] | > 0.2 µM |
| 0.015 µM | 0.068 µM | CN(Cc1ccccc1)C(=O)N[C@@H](Cc1c[nH]cn1)C(=O)N(CC(=O)NCC1(c2ccccc2)CCC1)Cc1ccc(OCc2ccccc2)cc1 [Example 8, (S)-2-(3-Benzyl-3-methyl-ureido)-N-(4-benzyloxy-benzyl)-3-(1H-imidazol-4-yl)-N-{[(1-phenyl-cyclobutylmethyl)-carbamoyl]-methyl}-propionamide] | 0.01 µM |
